Source: patent publication US20030181461A1, “Use of phosphodiesterase antagonists to treat insulin resistance” (priority 2002, published 2003)

How the values were obtained:
[1] = test system: insulin resistance in cats; assay: Development of insulin resistance in cats after muscarinic antagonists (RIST); type: in vivo
Source text: To avoid the complexity of the reaction to hypoglycemia, the rapid insulin sensitivity test (RIST) was employed (Lautt et al., Can. J. Physiol. Pharmacol. 76:1080 (1998)) wherein a euglycemic clamp was used following the administration of insulin and the response was quantitated as the amount of glucose required to be infused over the test period in order to hold arterial blood glucose levels constant.

[2] = test system: insulin sensitivity in atropine-treated rats; assay: Rapid insulin sensitivity test (RIST) in rats with atropine-induced 75% HISS-dependent insulin resistance; type: in vivo, Male Sprague Dawley rats; conditions: zaprinast 0.1 mg/kg ipv
Method: Methods for reversal of HISS-dependent insulin resistance using a phosphodiesterase inhibitor in normal rats Male Sprague Dawley rats (250-300 g) were allowed free access to water and normal rodent food for 1 week prior to all studies. Rats were fasted for 8 hours overnight and fed for 2 hours before the start of study. Rats were anesthetized with pentobarbital-sodium (65 mg/ml, ip injection, 0.1 ml/100 g body weight). Animals were placed on a heated thermostatically controlled surgical table to maintain body temperature during surgery and the experimental procedure. An extra-corporeal arterial-venous shunt (the loop) was established between the right femoral artery and right femoral vein, according to a published, standard operating procedure developed in our laboratory (Xie et al., 1996). The loop allows for regular blood sampling of arterial blood throughout the experiment as well as infusion of intravenous drugs and monitoring of arterial blood pressure. […] A laparotomy was performed and an indwelling portal venous catheter was inserted using a portal vein puncture technique. The portal catheter was used to administer the phosphodiesterase inhibitor directly to the liver. […] At this point, blood samples (25 μl) were taken at regular intervals from the loop and analyzed for glucose concentration. […] Glucose levels were monitored every 2 minutes during and after the infusion of insulin. […]

Structure (SMILES) | Dose required to produce a full (similar degree of) insulin resistance [1] | Reversal of HDIR produced by atropine [2]
COc1ccccc1CNCCCCCCNCCCCCCCCNCCCCCCNCc1ccccc1OC [methoctramine] | 10^−6 μmol/kg | –
CCCOc1ccccc1-c1nc2nn[nH]c2c(=O)[nH]1 [zaprinast] | – | able to reverse the HDIR produced by atropine
